Data published in patent publication US11214803B2, “Modulators of YAP1 expression” (Ionis Pharmaceuticals, Inc., priority 2019, dated 2022).
Strand notation (5' to 3'): a small letter for the sugar, then the base; units joined by * are phosphorothioate-linked, units joined directly phosphodiester-linked; [ ] holds rarer units or linkages, { } end groups; capitals alone tell only the bases. e = 2'-O-(2-methoxyethyl) (MOE); k = constrained ethyl (cEt); [5mC] = 5-methylcytosine; d = 2'-deoxy (DNA); m = 2'-O-methyl

System: Yap1 mRNA
Assay: Antisense inhibition of human Yap1 in SNU-449 cells by modified oligonucleotides, single dose (Example 5, RTS36584)
Format: cell-based
Conditions: Table 39; SNU-449 cells, 10,000 cells per well, free uptake, 2,000 nM oligonucleotide, approx. 48 hours; RTS36584; normalized to RIBOGREEN; Yap1 mRNA relative to untreated control
In short: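 SNU-449 cells (10,000/well) took up 2,000 nM oligonucleotide by free uptake for about 48 h. Yap1 mRNA was measured by qRT-PCR with primer probe set RTS36584 and normalised to RIBOGREEN total RNA. Values are % of untreated control; asterisked oligos target the amplicon region.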

| Substance | YAP1 (% UTC) |
| --- | --- |
| 1198453 (kG*dA*d[5mC]*dT*dA*dA*dG*dT*dA*dA*dG*kG*eT*kT*eT*k[5mC]; antisense) [Compound 1198453] | 48 |
| 1198377 (kA*dT*dG*dG*dA*dA*dA*dT*dT*dG*dT*k[5mC]*eT*k[5mC]*eA*kT; antisense) [Compound 1198377] | 30 |
| 1198430 (kA*dT*dA*dT*dT*dG*d[5mC]*dA*dA*dT*d[5mC]*kT*eG*kT*e[5mC]*kT) [Compound 1198430] | 49 |

Same assay, conditions: Table 40 (separate experiment); SNU-449 cells, 10,000 cells per well, free uptake, 2,000 nM oligonucleotide, approx. 48 hours; RTS36584; normalized to RIBOGREEN; Yap1 mRNA relative to untreated control

| Substance | YAP1 (% UTC) |
| --- | --- |
| 1198779 (antisense kA*eA*kT*dA*dT*dT*dG*d[5mC]*dA*dA*dT*d[5mC]*eT*eG*kT*k[5mC]) [Compound 1198779] | 49 |
| 1198427 (k[5mC]*dA*dA*d[5mC]*dT*d[5mC]*dT*dT*dA*dT*dA*kT*eG*kG*eT*kT; antisense) [Compound 1198427] | 62 |
| 1198756 (kG*eT*kG*d[5mC]*dT*dT*dT*dG*dG*dA*dA*dG*eA*eT*k[5mC]*kT; antisense) [Compound 1198756] | 50 |

Same assay, conditions: Table 41; SNU-449 cells, 10,000 cells per well, free uptake, 2,000 nM modified oligonucleotide, approximately 48 hours; RTS36584; normalized to RIBOGREEN; Yap1 mRNA relative to untreated control cells

| Substance | YAP1 (% UTC) |
| --- | --- |
| 1198733 (kG*eG*kT*dA*dT*dA*dA*d[5mC]*dT*dG*dG*dG*e[5mC]*eA*kA*kA; antisense) [Compound 1198733] | 47 |
| 1198660 (antisense kG*kG*dA*dA*dG*dA*dT*d[5mC]*dT*dG*dA*dA*kA*e[5mC]*kT*e[5mC]) [Compound 1198660] | 66 |
| 1198655 (k[5mC]*kA*d[5mC]*dT*dT*dT*dT*dA*d[5mC]*dA*dT*dT*kA*eG*kG*eA; antisense) [Compound 1198655] | 30 |
| 1198639 (kT*kA*dG*dA*dG*dT*dA*dT*dG*dT*dG*dG*k[5mC]*eA*kA*eT; antisense) [Compound 1198639] | 32 |
| 1198668 (antisense kA*kT*dA*dG*dT*dG*d[5mC]*dT*dT*dT*dG*dG*kA*eA*kG*eA) [Compound 1198668] | 72 |

Same assay, conditions: Table 42 (separate experiment); SNU-449 cells, 10,000 cells per well, free uptake, 2,000 nM modified oligonucleotide, approximately 48 hours; RTS36584; normalized to RIBOGREEN; Yap1 mRNA relative to untreated control cells

| Substance | YAP1 (% UTC) |
| --- | --- |
| 1198686 (antisense kG*kA*d[5mC]*dA*dA*d[5mC]*dT*d[5mC]*dT*dT*dA*dT*kA*eT*kG*eG) [Compound 1198686] | 78 |
| 1198201 (kA*kA*dA*dT*dT*dG*dT*d[5mC]*dT*d[5mC]*dA*eT*eG*e[5mC]*k[5mC]*kT; antisense) [Compound 1198201] | 34 |
| 1198706 (kA*kG*dT*dA*dA*dG*dG*dT*dT*dT*d[5mC]*d[5mC]*k[5mC]*eA*kG*eA; antisense) [Compound 1198706] | 39 |
| 1198685 (antisense k[5mC]*kA*dA*d[5mC]*dT*d[5mC]*dT*dT*dA*dT*dA*dT*kG*eG*kT*eT) [Compound 1198685] | 70 |

Same assay, conditions: Table 43 experiment; SNU-449 cells, 10,000 cells per well, free uptake, 2,000 nM, approximately 48 hours; RTS36584; Yap1 mRNA normalized to RIBOGREEN, relative to untreated control cells

| Substance | YAP1 (% UTC) |
| --- | --- |
| 1198262 (kT*kG*dT*dA*dA*dT*dA*dT*dT*dG*d[5mC]*eA*eA*eT*k[5mC]*kT; antisense) [Compound 1198262] | 114 |
| 1198263 (kA*kT*dG*dT*dA*dA*dT*dA*dT*dT*dG*e[5mC]*eA*eA*kT*k[5mC]; antisense) [Compound 1198263] | 114 |

Same assay, conditions: Table 44 experiment; SNU-449 cells, 10,000 cells per well, free uptake, 2,000 nM, approximately 48 hours; RTS36584; Yap1 mRNA normalized to RIBOGREEN, relative to untreated control cells

| Substance | YAP1 (% UTC) |
| --- | --- |
| 1198507 (kT*kT*dA*dT*dA*dT*dG*dG*dT*dT*dT*eT*kG*eT*kG*eT; antisense) [Compound 1198507] | 17 |
| 1198905 (kA*kT*dA*dT*dT*dA*dG*dA*dG*dT*dA*kT*dG*kT*dG*kG; antisense) [Compound 1198905] | 5 |
| 1198497 (antisense kA*kG*dG*dA*dT*dG*d[5mC]*dA*dT*dG*dG*eT*kT*eT*kT*eT) [Compound 1198497] | 22 |

Same assay, conditions: Table 45; Yap1 mRNA as percent of untreated control, SNU-449 cells, single dose

| Substance | YAP1 (% UTC) |
| --- | --- |
| 1198928 (kG*kT*dG*d[5mC]*dT*dT*dT*dG*dG*dA*dA*kG*dA*kT*d[5mC]*kT; antisense) [Compound 1198928] | 28 |
| 1198955 (kA*kT*dG*dT*dA*dA*dT*dA*dT*dT*dG*k[5mC]*dA*kA*dT*k[5mC]; antisense) [Compound 1198955] | 92 |
| 1198895 (kG*kG*dA*dA*dA*dT*dT*dG*dT*d[5mC]*dT*k[5mC]*dA*kT*dG*k[5mC]; antisense) [Compound 1198895] | 22 |
| 1198929 (kA*kG*dT*dG*d[5mC]*dT*dT*dT*dG*dG*dA*kA*dG*kA*dT*k[5mC]) [Compound 1198929] | 43 |
| 1095511 (antisense k[5mC]*kA*d[5mC]*dT*dG*dA*dG*dG*dT*dA*dT*kA*dA*k[5mC]*dT*kG) [Compound 1095511] | 46 |

Same assay, conditions: Table 46; Yap1 mRNA as percent of untreated control, SNU-449 cells, single dose

| Substance | YAP1 (% UT) |
| --- | --- |
| 1198812 (antisense kA*kT*dA*dT*dG*dG*dA*dA*dA*dT*dT*kG*eT*k[5mC]*eT*k[5mC]) [Compound 1198812] | 26 |
| 1198865 (kA*kA*dT*dA*dT*dT*dG*d[5mC]*dA*dA*dT*k[5mC]*eT*kG*eT*k[5mC]; antisense) [Compound 1198865] | 38 |
| 1198835 (kT*kT*dA*dA*dG*d[5mC]*dA*d[5mC]*dT*dT*dT*kT*eA*k[5mC]*eA*kT; antisense) [Compound 1198835] | 85 |

Same assay, conditions: Table 48; Yap1 mRNA level relative to untreated control; modified oligonucleotides targeting SEQ ID NO.: 1 and 2

| Substance | YAP1 (% UT) |
| --- | --- |
| 1198285 (kA*kT*kT*dG*dT*d[5mC]*dT*d[5mC]*dA*dT*dG*d[5mC]*k[5mC]*eT*kT*eA; antisense) [Compound 1198285] | 13 |
| 1198348 (kT*kG*kT*dA*dA*dT*dA*dT*dT*dG*d[5mC]*dA*kA*eT*k[5mC]*eT; antisense) [Compound 1198348] | 40 |
| 1197199 (antisense kA*kT*kA*dT*dG*dG*dT*dT*dT*dT*dG*dT*dG*kT*kG*kT) [Compound 1197199] | 75 |
| 1198333 (kA*kT*kT*d[5mC]*dA*dG*dA*dT*dT*dT*dA*dG*kG*eA*kT*eG; antisense) [Compound 1198333] | 77 |

Same assay, conditions: Table 49; Yap1 mRNA level relative to untreated control; modified oligonucleotides targeting SEQ ID NO.: 1 and 2

| Substance | YAP1 (% UT) |
| --- | --- |
| 1198338 (k[5mC]*kT*k[5mC]*dT*dT*dA*dT*dA*dT*dG*dG*dT*kT*eT*kT*eG; antisense) [Compound 1198338] | 24 |
| 1198577 (antisense k[5mC]*kT*kT*dT*dG*dG*dA*dA*dG*dA*dT*d[5mC]*kT*kG*kA*eA) [Compound 1198577] | 40 |

Same assay, conditions: Table 50; Yap1 mRNA remaining as percent of untreated control (UT), SNU-449 cells, single dose

| Substance | YAP1 (% UT) |
| --- | --- |
| 1198622 (kT*kA*kA*dG*dT*dA*dA*dG*dG*dT*dT*dT*k[5mC]*k[5mC]*k[5mC]*eA; antisense) [Compound 1198622] | 26 |
| 1197292 (kA*k[5mC]*kT*dT*mU*dT*dA*d[5mC]*dA*dT*dT*dA*dG*kG*kA*kA; antisense) [Compound 1197292] | 84 |
| 1197246 (antisense kA*kG*k[5mC]*dA*mC*dT*dT*dT*dT*dA*d[5mC]*dA*dT*kT*kA*kG) [Compound 1197246] | 33 |
| 1198594 (antisense k[5mC]*kT*kT*dA*dT*dA*dT*dG*dG*dT*dT*dT*kT*kG*kT*eG) [Compound 1198594] | 23 |

Same assay, conditions: Table 51; Yap1 mRNA remaining as percent of untreated control (UT), SNU-449 cells, single dose

| Substance | YAP1 (% UT) |
| --- | --- |
| 1197277 (kA*k[5mC]*kT*dA*mA*dG*dT*dA*dA*dG*dG*dT*dT*kT*k[5mC]*k[5mC]) [Compound 1197277] | 23 |
| 1197295 (G_{ks}^{m}C_{ks}T_{ks}T_{ds}U_{ys}G_{ds}G_{ds}A_{ds}A_{ds}G_{ds}A_{ds}T_{ds}C_{ds}T_{ks}G_{ks}A_{k}; as printed in the source, key not given here) [Compound 1197295] | 24 |
| 1197317 (kA*kG*kA*d[5mC]*mU*dA*dA*dG*dT*dA*dA*dG*dG*kT*kT*kT; antisense) [Compound 1197317] | 78 |

Same assay, conditions: Table 52; Yap1 mRNA, modified oligonucleotides targeting SEQ ID NO: 1 and 2

| Substance | YAP1 (% UT) |
| --- | --- |
| 1200873 (kT*kT*kA*dG*dA*mC*dT*dA*dA*dG*dT*dA*dA*kG*kG*kT; antisense) [Compound 1200873] | 55 |
| 1200854 (kT*kA*kT*dG*dT*mA*dA*dT*dA*dT*dT*dG*d[5mC]*kA*kA*kT; antisense) [Compound 1200854] | 91 |

Same assay, conditions: Yap1 mRNA, percent of untreated control; modified oligonucleotides targeting SEQ ID NO: 1 and 2; Table 47

| Substance | YAP1 (% UT) |
| --- | --- |
| 1197195 (antisense kT*kT*kT*dA*dG*dG*dA*dT*dG*d[5mC]*dA*dT*dG*kG*kT*kT) [Compound 1197195] | 38 |
